Several values for one entry are separate records, joined by “and”; a condition that tells them apart may be missing. Equal values may be shown once.
Experiments:
plasma [1] = experiment: Anticoagulant activity: prothrombin time (PT); assay type: biochemical, human; details: 20 μl sample + 80 μl plasma, test material g/dL (Asp 7.5 mg/Ml)
Experimental: (§1) Antithrombotic (anticoagulant) activity was evaluated according to a previously reported method. Each of thromborel S, actin and thrombin, which are reagents for Sysmex CA-1500 for analysis of PT, aPTT and TT, was mounted in Sysmex CA-1500 (Siemens Healthcare, Germany) which is an automated blood coagulation test device. According to the automated procedure of the test device, clotting time (sec) (prothrombin time (PT), activated partial thromboplastin time (aPTT) and thrombin time (TT)) was measured. A sufficient amount of a sample for each of the three analyses was about 400 uL of an 80:20 mixture of plasma and a test substance.
(§2) The isolated plasma was used in an experiment in a fresh state within 5-6 hours.
(§3) In this experiment, for the relative comparison of the measured clotting time (sec) (PT, aPTT and TT) between test groups, clotting time prolongation (%) relative to triple distilled water (purified water) that is a normal control test sample was statistically analyzed. For statistical analysis, the […] anticoagulant activities of test materials were comparatively analyzed using SPSS IBM version 21.0 by one-way ANOVA at p<0.05, and significance comparison between groups was performed by Duncan's test.
(§4) The aspirin solution was immediately used at room temperature in a light-shielded state or was cold-stored.
(§5) As a control, aspirin was used, and as a vehicle control, triple distilled water (purified water) was used instead of the sample.

plasma [2] = experiment: Anticoagulant activity: activated partial thromboplastin time (aPTT); assay type: biochemical, human; details: 20 μl sample + 80 μl plasma, test material g/dL (Asp 7.5 mg/Ml)
Experimental: as §1, §2, §3, §4, §5

plasma [3] = experiment: Anticoagulant activity: thrombin time (TT); assay type: biochemical, human; details: 20 μl sample + 80 μl plasma, test material g/dL (Asp 7.5 mg/Ml)
Experimental: as §1, §2, §3, §4, §5

[4] = Body weight and body weight gain of high-fat diet mice; assay type: in vivo, mice (C57BL/6); details: for Body weight gain, Mean / Body weight, Mean: sample in drinking water, metformin 250 mg/kg
Experimental: (§6) Using 8-week-old male mice (C57BL/6) (purchased from CoreTech), anti-diabetic candidate materials were evaluated using a GTT (Glucose Tolerance Test) that is a typical method for diagnosis of diabetes.
(§7) Mice were housed at a temperature of 22±2° C. and a relative humidity of 55-60% with 12-hr light/12-hr dark cycles. Five animals were allotted to each group, and mice from the same mother were grouped into one group, because male mice tend to fight together.
(§8) As feed, high-fat diet (60% of calories from fat; Research Diet Inc., New Brunswick, N.J.) and water were fed ad libitum for 10 weeks. Herein, the water fed contained the samples prepared in Examples 1-2 (3), 2-1, 2-4-1, 2-4-2 and 2-5. As a positive control, metformin (M-072, Sigma) (250 mg/kg) was used, and as a control, the samples prepared in Comparative Examples 1-1, 2-3-2, 2-5-1, 2-5-2 and 2-6 were used.
(§9) For reference, each of the samples prepared in Examples 2-4-1, 2-4-2 and 2-5 was set to the amount to be taken by an adult (60 kg) for 3 days, and the amount was converted into a mouse dose (12-fold/kg, see the US NIH guidance), thereby preparing animal feed. Namely, the amount to be taken by an adult (60 kg) for 3 days is 180-day dose/kg, which corresponds to 15-day dose/kg for mice. Thus, the amount corresponds to 750-day dose/mouse (20 g), because the average weight of mice is about 20 g. Thus, one mouse was allowed to take 1/750 of the prepared sample each day.
(§10) In addition, each of the samples prepared in Examples 1-2 (3) and 2-1 was set to the amount to be taken by an adult (60 kg) for 2 days, and the amount was converted into a mouse dose (12-fold/kg, see the US NIH guidance), thereby preparing animal feed. Namely, the amount to be taken by an adult (60 kg) for 2 days is 120-day dose/kg, which corresponds to 10-day dose/kg for mice. Thus, the amount corresponds to 500-day dose/mouse (20 g), because the average weight of mice is about 20 g. Thus, one mouse was allowed to take 1/500 of the prepared sample each day.
The diet intake and the body weight gain were measured weekly for 8 weeks. The body weight and the diet intake were measured immediately before first drug administration, and then measured at one-week intervals.
(§11) Meanwhile, experimental analysis results were expressed as mean±S.E.M., and the significance between test groups was statistically processed using Student T-TEST, and then the significance was verified at *P<0.05.

[5] = Glucose tolerance test (GTT) in high-fat diet mice; assay type: in vivo, mice (C57BL/6); details: for Glucose level (mg/dl), Mean: GTT, high-fat diet mice
Experimental: as §6, §7, §8, §9, §10
At 8 weeks of high-fat diet feeding, a glucose tolerance test (GTT) was performed. For 8 hours for the test, mice were fasted. Then, blood was sampled from the tail vein, and initial blood glucose levels were measured with a blood glucose meter (AUTO-CHEK, Diatech Korea). Then, glucose was administered intraperitoneally to the mice at a concentration of 1 g/kg, and after 30 min, 60 min, 90 min and 120 min, blood was sampled from the mice, followed by measurement of blood glucose levels (each group consisting of five animals).
as §11

[6] = Blood biochemistry (triglyceride, AST, ALT) in high-fat diet mice; assay type: in vivo, mice (C57BL/6); details: blood
Experimental: as §6, §8
In blood biochemistry, insulin (AKRIN-011T, Shibayagi, Japan), glucose (AM202, Asan Pharmaceutical Co., Ltd., Korea), triglyceride (AM157, Asan Pharmaceutical Co., Ltd.), total cholesterol (AM202, Asan Pharmaceutical Co., Ltd.), AST and ALT (Asan Pharmaceutical Co., Ltd.) were analyzed using enzymatic assay kits.
At 10 weeks of high-fat diet feeding, the mice were sacrificed by cervical dislocation to obtain serum. For histological examination, the liver, white adipose tissue (WAT), brown adipose tissue (BAT) and kidney were fixed with formalin (50-00-0, Junsei, Japan), and the remaining organs were stored at −70° C. The blood sampled from the heart was coagulated to obtain serum which was then stored at −70° C.
as §11

[7] = Scanning electron microscope (SEM) analysis, particle size; assay type: physicochemical
Source text: For reference, an analysis instrument and analysis conditions are as follows. (1) Analysis instrument: HITACHI (S-2700), Japan (2) Electron gun: Tungsten filament type (3) Resolution: 4.0 nm (4) Accelerating voltage: 15.0 kV.

[8] = Thermogravimetric analysis (TGA); assay type: physicochemical; details: first-order differentiation of TGA; N2, 20° C./min
Experimental: For reference, an analysis instrument and analysis conditions are as follows. (1) Analysis instrument: TGA 7 (Perkin-Elmer) (2) Atmosphere: N2 gas (3) Heating rate: 20° C./min (4) Range: 50 to 600° C.

## CC(=O)Oc1ccccc1C(=O)O [Asp, aspirin]
Plasma [1]; Table 2
  PT, clotting time prolongation relative to purified water, Mean: 9.90%
Plasma [1]; Table 3
  PT, clotting time prolongation relative to purified water, Mean: 17.51%
Plasma [1]; Table 4
  PT, clotting time prolongation relative to purified water, Mean: 26.02%
Plasma [2]; Table 2
  aPTT, clotting time prolongation relative to purified water, Mean: 7.31%
Plasma [2]; Table 3
  aPTT, clotting time prolongation relative to purified water, Mean: 16.28%
Plasma [2]; Table 4
  aPTT, clotting time prolongation relative to purified water, Mean: 29.82%
Plasma [3]; Table 2
  TT, clotting time prolongation relative to purified water, Mean: 13.59%
Plasma [3]; Table 3, values excluding one sample showing an extreme value
  *TT, clotting time prolongation relative to purified water, Mean: 20.96%
Plasma [3]; Table 4
  TT, clotting time prolongation relative to purified water, Mean: 23.95%

## NCCS(=O)(=O)O [DT19, taurine]
[4]; 1 week
  Body weight gain, Mean: 2.20 g
  Body weight, Mean: 21.46 g
[4]; 2 weeks
  Body weight gain, Mean: 4.36 g
  Body weight, Mean: 23.62 g
[4]; 3 weeks
  Body weight gain, Mean: 5.34 g
  Body weight, Mean: 24.60 g
[4]; 4 weeks
  Body weight gain, Mean: 6.52 g
  Body weight, Mean: 25.78 g
[4]; 5 weeks
  Body weight gain, Mean: 8.12 g
  Body weight, Mean: 27.38 g
[4]; 6 weeks
  Body weight gain, Mean: 7.94 g
  Body weight, Mean: 27.20 g
[4]; 7 weeks
  Body weight gain, Mean: 8.80 g
  Body weight, Mean: 28.06 g
[4]; 8 weeks
  Body weight, Mean: 28.78 g
[4]; before administration
  Body weight, Mean: 19.26 g
[5]; 0 min
  Glucose level (mg/dl), Mean: 111.80 mg/dL
[5]; 30 min
  Glucose level (mg/dl), Mean: 298.00 mg/dL
[5]; 60 min
  Glucose level (mg/dl), Mean: 295.60 mg/dL
[5]; 90 min
  Glucose level (mg/dl), Mean: 189.40 mg/dL
[5]; 120 min
  Glucose level (mg/dl), Mean: 119.00 mg/dL
[5]; at 8 weeks of high-fat diet feeding, 8 hours fasted
  Fasting glucose level: lower than that of the mice administered with high-fat diet (HFD), and were similar to the blood glucose levels of normal mice
[5]; at 8 weeks of high-fat diet feeding, glucose 1 g/kg intraperitoneally, 30-120 min
  Glucose control ability in GTT: significantly higher than that of the group administered with HFD alone
[6]
  ALT level (IU/L), Mean: 25.47 IU/L
  AST level (IU/L), Mean: 118.63 IU/L
  Triglyceride level (mg/dl), Mean: 116.20 mg/dL
[7]
  Average particle size: 222.06 μm
  Median particle size: 192.92 μm
[8]
  Final decomposition temperature: 394 °C
  First decomposition temperature: 362 °C

## O=C(CO)[C@@H](O)[C@H](O)[C@H](O)CO [Fruc 6.2, fructose]
Plasma [1]; Table 4
  PT, clotting time prolongation relative to purified water, Mean: 0.54%
Plasma [2]; Table 4
  aPTT, clotting time prolongation relative to purified water, Mean: −0.20%
Plasma [3]; Table 4
  TT, clotting time prolongation relative to purified water, Mean: 13.19%

## O=C(CO)[C@@H](O)[C@H](O)[C@H](O)CO [Fruc 12.4, fructose]
Plasma [1]; Table 4
  PT, clotting time prolongation relative to purified water, Mean: 0.54%
Plasma [2]; Table 4
  aPTT, clotting time prolongation relative to purified water, Mean: 0.58%
Plasma [3]; Table 4
  TT, clotting time prolongation relative to purified water, Mean: 30.07%

## CN(C)C(=N)N=C(N)N [Metformin, metformin]
[4]; 1 week
  Body weight (g), Mean: 23.550 g and 25.094 g
  Body weight gain, Mean: 1.70 g
  Body weight, Mean: 21.00 g
[4]; 2 weeks
  Body weight (g), Mean: 23.608 g and 26.344 g
  Body weight gain (g), Mean: 2.503 g and 2.406 g
  Body weight gain, Mean: 3.48 g
  Body weight, Mean: 22.78 g
[4]; 3 weeks
  Body weight (g), Mean: 25.125 g and 27.430 g
  Body weight gain (g), Mean: 4.020 g and 3.492 g
  Body weight gain, Mean: 4.54 g
  Body weight, Mean: 23.84 g
[4]; 4 weeks
  Body weight (g), Mean: 25.705 g and 27.708 g
  Body weight gain (g), Mean: 4.600 g and 3.770 g
  Body weight gain, Mean: 5.88 g
  Body weight, Mean: 25.18 g
[4]; 5 weeks
  Body weight (g), Mean: 27.198 g and 28.572 g
  Body weight gain (g), Mean: 6.093 g and 4.634 g
  Body weight gain, Mean: 6.42 g
  Body weight, Mean: 25.72 g
[4]; 6 weeks
  Body weight (g), Mean: 28.355 g and 28.772 g
  Body weight gain (g), Mean: 7.250 g and 4.834 g
  Body weight gain, Mean: 7.04 g
  Body weight, Mean: 26.34 g
[4]; 7 weeks
  Body weight (g), Mean: 27.368 g and 28.468 g
  Body weight gain (g), Mean: 6.263 g and 4.530 g
  Body weight gain, Mean: 8.22 g
  Body weight, Mean: 27.52 g
[4]; 8 weeks
  Body weight (g), Mean: 29.343 g and 27.608 g
  Body weight gain, Mean: 8.90 g
  Body weight, Mean: 28.20 g
[4]; before administration
  Body weight (g), Mean: 21.105 g and 23.938 g
  Body weight, Mean: 19.30 g
[5]; 0 min
  Glucose level (mg/dl), Mean: 144.20 mg/dL and 104.40 mg/dL
[5]; 30 min
  Glucose level (mg/dl), Mean: 386.40 mg/dL and 438.40 mg/dL
[5]; 60 min
  Glucose level (mg/dl), Mean: 301.40 mg/dL and 296.40 mg/dL
[5]; 90 min
  Glucose level (mg/dl), Mean: 194.40 mg/dL and 178.00 mg/dL
[5]; 120 min
  Glucose level (mg/dl), Mean: 135.20 mg/dL and 146.20 mg/dL
[6]
  Triglyceride level (mg/dl), Mean: 62.99 mg/dL
